Data taken from PubChem BioAssay AID248 (DTP/NCI, 2004).
Toxic doses and inconclusive results are not listed. No stated cut-off is given here; in the data, active means T/C of 150% or more; inactive means T/C below 125%.

System: L1210 leukemia ip in BDF1 mice, survival T/C
Experiment: NCI In Vivo Anticancer Drug Screen. Data for tumor model L1210 Leukemia (intraperitoneal) in B6D2F1 (BDF1) mice
Conditions: endpoint: mean survival time, higher = longer survival
In short: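 Each compound was tested against a transplantable tumor grown in mice. The endpoint was survival, with treated animals benchmarked against vehicle controls as a simple ratio.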

[1] = dose: 100.0 mg/kg/injection, schedule: Q04DX003 (ip), vehicle: saline with Tween-80
[2] = dose: 200.0 mg/kg/injection, schedule: Q04DX003 (ip), vehicle: saline with Tween-80
[3] = dose: 400.0 mg/kg/injection, schedule: Q04DX003 (ip), vehicle: saline with Tween-80
[4] = dose: 50.0 mg/kg/injection, schedule: Q01DX009 (ip), vehicle: Klucel (hydroxypropylcellulose) (HPC)
[5] = dose: 100.0 mg/kg/injection, schedule: Q01DX009 (ip), vehicle: Klucel (hydroxypropylcellulose) (HPC)
[6] = dose: 200.0 mg/kg/injection, schedule: Q01DX009 (ip), vehicle: Klucel (hydroxypropylcellulose) (HPC)
[7] = dose: 100.0 mg/kg/injection, schedule: Q01DX001 (ip), vehicle: saline
[8] = dose: 200.0 mg/kg/injection, schedule: Q01DX001 (ip), vehicle: saline
[9] = dose: 400.0 mg/kg/injection, schedule: Q01DX001 (ip), vehicle: saline
[10] = dose: 100.0 mg/kg/injection, schedule: Q04DX003 (ip), vehicle: Klucel (hydroxypropylcellulose) (HPC)
[11] = dose: 200.0 mg/kg/injection, schedule: Q04DX003 (ip), vehicle: Klucel (hydroxypropylcellulose) (HPC)
[12] = dose: 400.0 mg/kg/injection, schedule: Q04DX003 (ip), vehicle: Klucel (hydroxypropylcellulose) (HPC)
[13] = dose: 12.5 mg/kg/injection, schedule: Q04DX003 (ip), vehicle: Klucel (hydroxypropylcellulose) (HPC)
[14] = dose: 25.0 mg/kg/injection, schedule: Q01DX009 (ip), vehicle: Klucel (hydroxypropylcellulose) (HPC)
[15] = dose: 25.0 mg/kg/injection, schedule: Q04DX003 (ip), vehicle: Klucel (hydroxypropylcellulose) (HPC)
[16] = dose: 100.0 mg/kg/injection, schedule: Q01DX009 (ip), vehicle: saline with Tween-80
[17] = dose: 200.0 mg/kg/injection, schedule: Q01DX009 (ip), vehicle: saline with Tween-80
[18] = dose: 400.0 mg/kg/injection, schedule: Q01DX009 (ip), vehicle: saline with Tween-80
[19] = dose: 50.0 mg/kg/injection, schedule: Q04DX003 (ip), vehicle: Klucel (hydroxypropylcellulose) (HPC)
[20] = dose: 100.0 mg/kg/injection, schedule: Q04DX003 (ip), vehicle: saline
[21] = dose: 200.0 mg/kg/injection, schedule: Q04DX003 (ip), vehicle: saline
[22] = dose: 400.0 mg/kg/injection, schedule: Q04DX003 (ip), vehicle: saline

Measured: T/C

c1ccc([P+](Cc2cccc(C[P+](c3ccccc3)(c3ccccc3)c3ccccc3)c2)(c2ccccc2)c2ccccc2)cc1
inactive: dose: 1.2 mg/kg/injection, schedule: Q01DX001 (ip), vehicle: acetone 107 % of control | dose: 2.5 mg/kg/injection, schedule: Q01DX001 (ip), vehicle: acetone 99 % of control

CC[N+](C)(CC)Cc1cc(C(C)=O)c(C)o1
inactive: dose: 12.5 mg/kg/injection, schedule: Q01DX009 (ip), vehicle: saline with Tween-80 90 % of control | dose: 25.0 mg/kg/injection, schedule: Q01DX009 (ip), vehicle: saline with Tween-80 95 % of control | dose: 50.0 mg/kg/injection, schedule: Q01DX009 (ip), vehicle: saline with Tween-80 93 % of control

Nc1nc(C=O)c(Cc2ccc3ccccc3c2)c(=O)[nH]1
inactive: [1] 100 % of control | [2] 108 % of control | [3] 110 % of control

COC1OC(CO)C(O)C1n1cnc2c(SC)ncnc21 (centres undefined)
inactive: dose: 100.0 mg/kg/injection, schedule: Q04DX002 (ip), vehicle: saline 107 % of control | dose: 200.0 mg/kg/injection, schedule: Q04DX002 (ip), vehicle: saline 104 % of control

Cc1cc(C(=O)O)c(C)n1-c1ccccc1C(=O)O
inactive: [4] 102 % of control | dose: 100.0 mg/kg/injection, schedule: Q01DX001 (ip), vehicle: Klucel (hydroxypropylcellulose) (HPC) 103 % of control | [5] 89 % of control | dose: 200.0 mg/kg/injection, schedule: Q01DX001 (ip), vehicle: Klucel (hydroxypropylcellulose) (HPC) 92 % of control | [6] 93 % of control | dose: 400.0 mg/kg/injection, schedule: Q01DX001 (ip), vehicle: Klucel (hydroxypropylcellulose) (HPC) 94 % of control

CC(=O)Nc1ccc(/C=N/N2CCN(/N=C/c3ccc(NC(C)=O)cc3)CC2)cc1
inactive: [7] 86 % of control | [8] 96 % of control | [9] 92 % of control

OCCN1CC1
inactive: dose: 1.0 mg/kg/injection, schedule: Q01DX009 (ip), vehicle: saline 92 % of control | dose: 1.56 mg/kg/injection, schedule: Q01DX009 (ip), vehicle: saline 100 % of control | dose: 2.3 mg/kg/injection, schedule: Q01DX009 (ip), vehicle: saline 96 % of control | dose: 3.12 mg/kg/injection, schedule: Q01DX009 (ip), vehicle: saline 120 % of control | dose: 6.25 mg/kg/injection, schedule: Q01DX009 (ip), vehicle: saline 94 % of control

CS(=O)(=O)OC[C@@H]1C2C=CC(C2)[C@@H]1COS(C)(=O)=O
inactive: [4] 107 % of control | [5] 100 % of control | [10] 98 % of control | [6] 104 % of control | [11] 94 % of control | [12] 107 % of control

S=C=NCC(Br)CBr (centres undefined)
inactive: dose: 6.25 mg/kg/injection, schedule: Q01DX009 (ip), vehicle: Klucel (hydroxypropylcellulose) (HPC) 104 % of control | dose: 12.5 mg/kg/injection, schedule: Q01DX009 (ip), vehicle: Klucel (hydroxypropylcellulose) (HPC) 103 % of control | [13] 95 % of control | [14] 87 % of control | [15] 105 % of control

O=C1CCC(=O)N1c1ccccc1Cl
inactive: dose: 87.5 mg/kg/injection, schedule: Q01DX001 (ip), vehicle: Klucel (hydroxypropylcellulose) (HPC) 102 % of control | dose: 175.0 mg/kg/injection, schedule: Q01DX001 (ip), vehicle: Klucel (hydroxypropylcellulose) (HPC) 106 % of control | dose: 350.0 mg/kg/injection, schedule: Q01DX001 (ip), vehicle: Klucel (hydroxypropylcellulose) (HPC) 98 % of control

CCOC(=O)/C(C#N)=C(\C)c1cccc(C)c1
inactive: dose: 25.0 mg/kg/injection, schedule: Q04DX003 (ip), vehicle: saline with Tween-80 94 % of control | dose: 50.0 mg/kg/injection, schedule: Q04DX003 (ip), vehicle: saline with Tween-80 94 % of control | [1] 102 % of control

O=C(Oc1ccccc1)c1ccccc1Cl
inactive: [5] 102 % of control | [16] 96 % of control | [10] 96 % of control | [1] 100 % of control | [6] 98 % of control | [17] 101 % of control | [11] 96 % of control | [2] 100 % of control | dose: 400.0 mg/kg/injection, schedule: Q01DX009 (ip), vehicle: Klucel (hydroxypropylcellulose) (HPC) 95 % of control | [18] 97 % of control | [12] 98 % of control | [3] 110 % of control

CC(C)(C)c1ccccc1C(N)=O
inactive: dose: 100.0 mg/kg/injection, schedule: Q04DX003 (ip), vehicle: other 101 % of control | dose: 200.0 mg/kg/injection, schedule: Q04DX003 (ip), vehicle: other 109 % of control | dose: 400.0 mg/kg/injection, schedule: Q04DX003 (ip), vehicle: other 91 % of control

CCCCOC(=O)c1ccc(O)c(OC)c1
inactive: [7] 100 % of control | [8] 105 % of control | [9] 102 % of control

COc1ccc([N+](=O)[O-])cc1[I+]c1cc([N+](=O)[O-])ccc1OC
inactive: dose: 50.0 mg/kg/injection, schedule: Q01DX001 (ip), vehicle: saline 111 % of control | [7] 90 % of control | [8] 96 % of control | [9] 90 % of control

NN(CC1=COc2ccccc2O1)Cc1ccccc1
inactive: [14] 100 % of control | [15] 92 % of control | [4] 94 % of control | [19] 92 % of control | [5] 96 % of control | [10] 92 % of control | [6] 95 % of control | [11] 95 % of control | [12] 97 % of control

CC(=O)OCC1OC(OC(C)=O)C(NC(=O)N(C)c2ccccc2)C(OC(C)=O)C1OC(C)=O (centres undefined)
inactive: [10] 105 % of control | [11] 105 % of control | [12] 105 % of control

OC1CC2C=CC1C2 (centres undefined)
inactive: dose: 100.0 mg/kg/injection, schedule: Q01DX001 (ip), vehicle: carboxymethylcellulose (CMC) 93 % of control | [7] 107 % of control | dose: 200.0 mg/kg/injection, schedule: Q01DX001 (ip), vehicle: carboxymethylcellulose (CMC) 95 % of control | [8] 88 % of control | dose: 400.0 mg/kg/injection, schedule: Q01DX001 (ip), vehicle: carboxymethylcellulose (CMC) 101 % of control | [9] 109 % of control

O=c1cc(CSCC(O)CO)[nH]c(=O)[nH]1 (centres undefined)
inactive: [20] 98 % of control | [21] 98 % of control | [22] 96 % of control

NC(=O)C(Cc1cnc[nH]1)NC(=O)OCc1ccccc1 (centres undefined)
inactive: [16] 91 % of control | [17] 96 % of control | [18] 105 % of control

O=C1CCSCC1
inactive: [7] 107 % of control | dose: 100.0 mg/kg/injection, schedule: Q01DX009 (ip), vehicle: saline 100 % of control | [20] 100 % of control | [8] 104 % of control | dose: 200.0 mg/kg/injection, schedule: Q01DX009 (ip), vehicle: saline 95 % of control | [21] 101 % of control | [9] 95 % of control | dose: 400.0 mg/kg/injection, schedule: Q01DX009 (ip), vehicle: saline 95 % of control | [22] 104 % of control

O=C(CBr)Nc1ccc(C(=O)O)c(O)c1
inactive: [13] 103 % of control | [15] 92 % of control | [19] 92 % of control

Cc1ccc(NC2CNC(=O)NC2=O)cc1 (centres undefined)
inactive: dose: 100.0 mg/kg/injection, schedule: Q01DX Z (ip), vehicle: methylcellulose (MC) 100 % of control | dose: 200.0 mg/kg/injection, schedule: Q01DX Z (ip), vehicle: methylcellulose (MC) 93 % of control

CC(=O)N(/C=C/C=C/C=C1\C(=O)N(c2ccc(S(=O)(=O)O)cc2)N=C1C)c1ccccc1
inactive: [7] 99 % of control | [8] 98 % of control | [9] 88 % of control
